This is an account of results in patent US20210283198A1, “METHOD FOR TREATING AND/OR PREVENTING COCCIDIOSIS” (priority 2020, published 2021).

In assay [1] the test system is P. falciparum. Conditions: literature (Chakrabarty et al. 2008); cited from earlier work.
The test system of assay [2] is Eimeria tenella merozoites. The assay can be described thus: In vitro death of merozoite (propidium iodide staining, confocal microscopy). It is filed as cell-based. Conditions: 100 ppm; 10^4/mL merozoites; 1 h at 37° C.; mean ± SD (n = 3).
For assay [3], the system named is Eimeria tenella sporozoites. Description: Scanning electron microscopy of sporozoite morphology. Type of assay: cell-based. Conditions: 5, 10, 20 ppm; 1 h at 37° C.; 10^6 sporozoites/mL; compared with untreated group.

The structures appear in SMILES notation. Marks after values point to notes of the source that are not given here. *1 amine or outer side, *2 acyl side, *3 side chain or, on linkers, in order; H or OH if unused. Where a SMILES comes first, the peptide text is derived from it. Bridges are numbered along the chain shown (N, C = ends). [ ]: non-standard residue; d: D form. X1 = CC(C)CCCCCCCCC[C@H](CC(=O)[*:1])O[*:2]

Take `CC(C)CCCCCCCCC[C@@H]1CC(=O)N[C@@H](CCC(=O)O)C(=O)N[C@@H](CC(C)C)C(=O)N[C@H](CC(C)C)C(=O)N[C@@H](C(C)C)C(=O)N[C@@H](CC(=O)O)C(=O)N[C@H](CC(C)C)C(=O)N[C@@H](CC(C)C)C(=O)O1` [surfactin standard, surfactin] (EL[dL]VD[dL]L; linker N-C via X1): the “Intraerythrocytic growth of P. falciparum” value in assay [1] is reported as “potent inhibitor of intraerythrocytic growth”. Further, the “Death of merozoite (%)” value in assay [2] is reported as 97 ± 0.01^b %. Also, the “Morphology of Eimeria tenella sporozoites (scanning electron microscopy)” value in assay [3] is “disrupt the morphology”.
